From patent publication US5559232A, “Carboxamides” (Hoffmann-La Roche Inc., priority 1993, dated 1996) come the findings set out here.

One assay has as its target human thrombin (Homo sapiens, UniProt P00734). Nature of the assay: inhibition of the amidolytic activity of thrombin (chromogenic substrate S-2238). Type of assay: biochemical. To be noted: for Ki: human thrombin 0.5 nM, substrate S-2238, pH 7.8, room temperature; for q (ratio of the inhibition of trypsin to the inhibition of thrombin): specificity: Ki trypsin / Ki thrombin. As for the experimental part: A differential inhibition of thrombin and other serine proteases by the above compounds is desirable in order to obtain compounds having as high a specificity as possible and at the same time to avoid possible side-effects.
Specific chromogenic peptide substrates can be used to determine the inhibition of the catalytic activity of the above proteases. The inhibition of the amidolytic activity of thrombin and trypsin by the above guanidines was determined as described hereinafter.
The measurements were carried out on microtitre plates at room temperature. For this, in each well of the plate 150 μl of buffer (50 mM Tris, 100 mM NaCl, 0.1% polyethylene glycol; pH 7.8) were mixed with 50 μl of the inhibitor dissolved in DMSO and diluted in the buffer, and 25 μl of human thrombin (0.5 nM final conc.) were added. After incubation for 10 minutes the reaction was started by the addition of chromogenic substrate S-2238 (H-D-Phe-Pip-Arg-paranitroaniline from Kabivitrum; 10 or 50 μm final conc.) and the hydrolysis of the substrate was followed spectrophotometrically on a kinetic microtiter plate reader for 5 minutes. After graphical presentation of the inhibition curves the Ki values were determined according to the method described in Blochem. J. 55, 1955, 170-171.

The target of a further assay is trypsin. Nature of the assay: inhibition of the amidolytic activity of trypsin (chromogenic substrate S-2251). The format is biochemical. To be noted: substrate S-2251, 200 and 750 μM, otherwise analogous to thrombin.

One may read the Ki as a measure of affinity in units of concentration, obtained from inhibition or displacement. Regarding `CCCCN1CC(=O)N[C@@H](CC(=O)NC[C@@H]2CCCN(C(=N)N)C2)C1=O` [Example 18, N-[(S)-1-(amino-imino-methyl)-piperidin-3-ylmethyl]-2-[(S)-2,6-dioxo-4-butyl-piperazin-2-yl]-acetamide], on human thrombin, the Ki turned out to be 2.2 µM and the “q (ratio of the inhibition of trypsin to the inhibition of thrombin)” value was determined as 268. The molecule also had an inhibition constant (Ki) on trypsin of 590 µM.
On to `CC(C)(C)OC(=O)N[C@@H](CC(=O)NC[C@@H]1CCCN(C(=N)N)C1)C(=O)N(CCNC(=O)c1cnccn1)C1CC1` [Example 19, (S)-N4-[(S)-1-(amino-imino-methyl)-piperidin-3-yimethyl]-2-tert-butoxycarbonylamino-N1-cyclopropyl-N1-(2-pyrazin-2-ylcarbonylamino)-succinamide], for which, on human thrombin, the Ki worked out at 0.0069 µM and the “q (ratio of the inhibition of trypsin to the inhibition of thrombin)” value is reported as 449. In addition, at trypsin, the Ki stood at 3.1 µM.
As for `N=C(N)N1CCC[C@@H](CNC(=O)C[C@H](NC(=O)CCc2c[nH]c3ccccc23)C(=O)N(CCNC(=O)c2cnccn2)C2CC2)C1` [Example 21a, (S)-N4-[(S)-1-(amino-imino-methyl)-piperidin-3-ylmethyl]-N1-cyclopropyl-2-(3-indol-3-yl-propionylamino)-N1-(2-pyrazin-2-ylcarbonylamino-ethyl)-succinamide], the figures for the Ki on human thrombin and at trypsin were 0.0023 µM and 8.9 µM, respectively. Also, the “q (ratio of the inhibition of trypsin to the inhibition of thrombin)” value on human thrombin is on record as 3870.
For `COC(=O)CC[C@H](O)C(=O)N[C@@H](CC(=O)NC[C@@H]1CCCN(C(=N)N)C1)C(=O)N(CCNC(=O)c1cnccn1)C1CC1` [Example 21b, methyl (S)-4-[(S)-2-[(S)-1-(amino-imino-methyl)-piperidin-3-ylmethylcarbonyl]-1-[cyclopropyl-(2-pyrazin-2-ylcarbonylaminoethyl)-carbamoyl]-ethylcarbamoyl]-4-hydroxy-butrate], in that order: 0.0072 µM, 14 µM and 1944.
On to `CC(=O)N[C@@H](Cc1c[nH]c2ccccc12)C(=O)N[C@@H](CC(=O)NC[C@@H]1CCCN(C(=N)N)C1)C(=O)N(CCNC(=O)c1cnccn1)C1CC1` [Example 21c, (S)-2-[(S)-2-acetylamino-3-indol-3-yl-propionylamino]-N4-[(S)-1-(amino-imino-methyl)-piperidin-3-ylmethyl]-N1-cyclopropyl-N1-(2-pyrazin-2-ylcarbonylamino-ethyl)-succinamide], for which the inhibition constant Ki was determined as 0.0061 µM at human thrombin and 15 µM on trypsin. For the same molecule, at human thrombin, the “q (ratio of the inhibition of trypsin to the inhibition of thrombin)” value amounted to 2459.
In the case of `NC(=NO)N1CCC[C@@H](CNC(=O)C[C@H](NS(=O)(=O)c2ccc3ccccc3c2)C(=O)N(CCNC(=O)c2cnccn2)C2CC2)C1` [Example 22, (S)-N4-[(S)-1-(amino-hydroxyimino-methyl)-piperidin-3-ylmethyl]-N1-cyclopropyl-2-(naphthalen-2-ylsulphonylamino)-N1-[2-(pyrazin-2-ylcarbonylamino)-ethyl]-succinamide], the figures for the inhibition constant Ki at human thrombin and at trypsin were 0.0015 µM and 16.5 µM, respectively. Further, the “q (ratio of the inhibition of trypsin to the inhibition of thrombin)” value on human thrombin was 11000.
In the case of `N=C(N)N1CCC[C@@H](CNC(=O)C[C@H](NS(=O)(=O)N2CCOCC2)C(=O)N(CCNC(=O)OCc2ccccc2)C2CC2)C1` [Example 23, benzyl 2-[[(S)-3-[(S)-1-(amino-imino-methyl)-piperidin-3-ylmethylcarbamoyl]-2-morpholin-4-ylsulphonylamino-propionyl]cyclopropyl-amino]-ethylcarbamate], at human thrombin, the affinity, expressed as Ki, was 0.0046 µM and the “q (ratio of the inhibition of trypsin to the inhibition of thrombin)” value is on record as 2826. At trypsin, this molecule returned an inhibitory constant (Ki) of 13 µM.
With `N=C(N)N1CCC[C@@H](CNC(=O)C[C@H](NS(=O)(=O)N2CCOCC2)C(=O)N(CCNC(=O)c2cnccn2)C2CC2)C1` [Example 24, (S)-N4-[(S)-1-(amino-imino-methyl)-piperidin-3-ylmethyl]-N1-cyclopropyl-2-morpholin-4-ylsulphonylamino-N1-(2-pyrazin-2-ylcarbonylamino-ethyl)-succinamide], the Ki was 0.0012 µM at human thrombin and 7.1 µM on trypsin. Also, at human thrombin, the “q (ratio of the inhibition of trypsin to the inhibition of thrombin)” value is listed as 5917.
Take `N=C(N)N1CCC[C@@H](CNC(=O)C[C@H](NS(=O)(=O)N2CCOCC2)C(=O)N(CCNC(=O)c2ccc(=O)[nH]n2)C2CC2)C1` [Example 25]: at human thrombin, the inhibition constant (Ki) was 0.0013 µM and the “q (ratio of the inhibition of trypsin to the inhibition of thrombin)” value is reported as 5538. On trypsin, this molecule came in with a Ki of 7.2 µM.
